Read-outs that look alike come from different tables or passages of the source.

In data set [1] the test system is Y39C-α-synuclein transgenic mice. Briefly: Rotarod test in Y39C-α-synuclein transgenic mice treated with glycerol phenylbutyrate. The class given is in vivo, mouse. How it is done:
Transgenic mice were genetically programmed from birth to develop a “Parkinson-Plus” condition by depositing an abnormal form of a protein called Y39C-α-synuclein in neurons of the brain under control of the Thy1 promoter (see Zhou et al., J. Biol. Chem., 2008, 283, 9863-70). […] After 6 weeks of daily treatment, animals were placed on a rotating rod (Rotarod) at different speeds for up to 5 minutes. Animals which could not keep up with the turning rod fell off. The time they were able to stay on the rod was noted. […] These differences were statistically significant at the higher speeds, 21 and 26 rpm. At the highest speed, 33 rpm, all animals fell off the rod after about 50 seconds.
On the technique in general: Falling from the rotarod earlier than controls is read as motor impairment.

The conditions of data set [2]: gut; cited from earlier work.
The test system of data set [3] is DJ-1. The conditions noted are these: N27 cells, two days treatment, Western blot.
Experimental: Dopaminergic cells derived from embryonic day 12 rat mesencephalon and immortalized with the SV40 large T antigen designated 1RB3AN27, (N27 cells) were used (37). […] Cells were lysed in a dissociation buffer containing 50 mM Tris-HCl, 10 mM NaCl, 0.1% Triton X-100 plus protease inhibitor cocktail (Roche). […] Protein concentration was determined by the BCA method (Pierce). Fifty μg of protein was separated on 10% SDSPAGE gel and transferred to a nitrocellulose membrane. […] Blots were incubated with HRP-conjugated secondary antibody (1:10,000; Jackson Immune Research), followed by chemiluminescent detection (Perkin Elmer life Sciences) (31,38).
Data set [4] has as its system DJ-1. The note with it: C57BL/6 mice, drinking water, two weeks, vs control.
Experimental: Cells were lysed in a dissociation buffer containing 50 mM Tris-HCl, 10 mM NaCl, 0.1% Triton X-100 plus protease inhibitor cocktail (Roche). The mouse brain tissues were dissected and quickly frozen in dry ice. Tissues were thawed on ice and homogenized in dissociation buffer with protease inhibitors (Roche). Protein concentration was determined by the BCA method (Pierce). Fifty μg of protein was separated on 10% SDSPAGE gel and transferred to a nitrocellulose membrane. After blocking nonspecific binding, membranes were incubated with antibodies to DJ-1 (1:5000, Chemicon), α-synuclein (1:3000, Transduction Laboratories), TH (1;2000, PelFreez), and β-actin (1:4000, Sigma). Blots were incubated with HRP-conjugated secondary antibody (1:10,000; Jackson Immune Research), followed by chemiluminescent detection (Perkin Elmer life Sciences) (31,38).
Adult C57BL/6 mice (4-6 months old) were treated with PB and SB in drinking water for 14 days. The PB and SB were dissolved in water at concentrations of 500, 1000, 1500, and 2000 mg/L. Mice typically drink 4-5 ml of water per day, and their drinking volumes were not affected by the addition of PB or SB. Control animals received water with sodium chloride added to the same molarity as the sodium in the drug-treated animals. […]
For data set [5], the system named is DJ-1. The conditions noted are these: HEK293 reporter cells, 48 hr treatment.
Experimental: Cells were lysed in a dissociation buffer containing 50 mM Tris-HCl, 10 mM NaCl, 0.1% Triton X-100 plus protease inhibitor cocktail (Roche). […] Protein concentration was determined by the BCA method (Pierce). Fifty μg of protein was separated on 10% SDSPAGE gel and transferred to a nitrocellulose membrane. After blocking nonspecific binding, membranes were incubated with antibodies to DJ-1 (1:5000, Chemicon), α-synuclein (1:3000, Transduction Laboratories), TH (1;2000, PelFreez), and β-actin (1:4000, Sigma). Blots were incubated with HRP-conjugated secondary antibody (1:10,000; Jackson Immune Research), followed by chemiluminescent detection (Perkin Elmer life Sciences) (31,38).
The luciferase assay was based on the pGLuc-Basic vector (NEB). The human DJ-1 2 kb promoter area was amplified by PCR using genomic DNA from HEK293 cells. The human DJ-1 promoter was then cloned into the pGLuc-Basic vector, and that reporter vector was transfected into HEK293 cells. G418 (200 μg/ml) was applied to the cultures, and resistant clones were selected and assayed for luciferase activity. […] Culture medium samples (20 μl) were incubated with Gaussia luciferase assay substrate (NEB), and luminescence was measured in a 96-well plate reader (BioTek Synergy HT Multi-Mode microplate reader).
The test system of a further data set is human DJ-1 promoter. The experiment in a line: Human DJ-1 promoter-luciferase reporter assay in HEK293 cells. The note with it: 48 hr treatment. The format is cell-based. The source says: The human DJ-1 2 kb promoter area was amplified by PCR using genomic DNA from HEK293 cells. The human DJ-1 promoter was then cloned into the pGLuc-Basic vector, and that reporter vector was transfected into HEK293 cells.
(In general: A reporter such as luciferase makes a cellular process visible.)

Another data set relates to α-synuclein. The note with it: C57BL/6 mice, drinking water, two weeks.
The subject of a further data set is dopamine neurons. The note with it: vs MPTP alone. How it is done: Treatment with PB continued after MPTP injection. […] One week after MPTP lessoning, mouse brain tissues were dissected for Western blot and HPLC analysis. Mouse striatum was frozen in dry ice, sonicated in ice-cold 0.2 m perchloric acid and centrifuged at 15,000 g for 15 min at 4° C. An aliquot (5 μL) of the supernatant solution was analyzed by HPLC equipped with an electrochemical detector (CoulArray system ESA Model 5600; ESA, Boston, Mass., USA), a pump (ESA Model 580) set at 1.5 mL/min, and a reverse-phase C18 column (3 μm, 100 Å 4.6 mm, Waters, Milford, Mass., USA). The mobile phase was composed of 100 mm citric acid, 2% methanol, 1 mm EDTA and 5 mg/L sodium octyl sulfate (pH 3.0).

The subject of data set [6] is Y39C α-synuclein transgenic mice. The conditions noted are these: 1000 mg/L drinking water, 6 and 12 weeks.
Experimental: The [MUT] α-synuclein transgenic mice were divided into younger (6-8 months=Young Tg) and older (10-12 months=Old Tg) groups. Each group received PB (1000 mg/L, 5.4 mM) or vehicle (NaCl) in the drinking water for 3 months. Animals were tested for rotarod and water maze performance after 6-weeks and 12-weeks of treatment. Mice were tested for their ability to run on a 3 cm diameter rotating rod (rotarod) at speeds ranging from 3 to 33 rpm. The protocol consisted of two phases: habituation (Day 1) and rotated training/testing (Days 2 to 5). During habituation on Day 1, the mice were trained to remain on the rotarod at 3 rpm. […] Each test day, the speed was increased, reaching 33 rpm by Day 5. The time the mice spent on the rotarod without falling was recorded for each trial.
Data set [7] concerns N27 cells. The conditions noted are these: two days pretreatment, then A53T α-synuclein adenovirus two days.
Another data set deals with Nrf2. The note with it: N27 dopamine neurons.
For data set [8], the system named is N27 cells.
The subject of another data set is Vamp2. The note with it: A53T human α-synuclein overexpression plus phenylbutyrate.
Data set [9] has as its system Y39C α-synuclein transgenic mice. The conditions noted are these: 1000 mg/L drinking water, 6 and 12 weeks. This is another data set of the same source.
Experimental: The [MUT] α-synuclein transgenic mice were divided into younger (6-8 months=Young Tg) and older (10-12 months=Old Tg) groups. Each group received PB (1000 mg/L, 5.4 mM) or vehicle (NaCl) in the drinking water for 3 months. Animals were tested for rotarod and water maze performance after 6-weeks and 12-weeks of treatment. Spatial learning was assessed using the Morris water maze. The maze included a circular tank (120 cm in diameter) filled to 10 cm below the edge of the tank with 27° C. water that was made opaque by the addition of non-toxic black ink. A circular escape platform (10 cm in diameter) was located 1 cm below the surface of the water in a constant location in the northwest quadrant of the tank. Mice were first acclimated to the maze during three trial habituation sessions. Each testing session consisted of three consecutive days with four trials per day. The platform was invisible in the pool, and mice were allowed to swim for 60 sec before being returned to the home cage. The latency from all training and testing sessions was collected.
In data set [10] the test system is N27 cells. The conditions noted are these: shDJ-1 N27 cells; H2O2 75 or 100 μM, 6-OHDA 60 or 80 μM.
For data set [11] the following is noted: cited from earlier work.
[12] abbreviates: 1000 mg/L drinking water, Western blot.

As to `O=C(CCCc1ccccc1)OCC(COC(=O)CCCc1ccccc1)OC(=O)CCCc1ccccc1` [glycerol phenylbutyrate, Glycerol phenylbutyrate], the “time able to stay on the rotating rod” value in data set [1] (6 weeks daily treatment, vs glycerol, significant at 21 and 26 rpm) was “able to stay on the rod longer”. Besides, the “time until animals fell off the rod at the highest speed” value in data set [1] (33 rpm, all animals) is on record as “about 50 seconds”. Moreover, the “metabolism of the pro-drug” value in [2] was “metabolized in the gut to produce the active compound phenylbutyrate”.

In the case of `CCCC(=O)[O-].[Na+]` [sodium butyrate], the DJ-1 protein levels is 300 % of control in the data set on DJ-1 [3] and “increased” in the data set on DJ-1 [5]. The “brain DJ-1 levels” value in the data set on DJ-1 [4] is “significantly increased DJ-1 levels”. Also, in the data set with human DJ-1 promoter, the luciferase activity entry was “increased luciferase activity”. In addition, the “α-synuclein concentrations in brain” value with α-synuclein is recorded as “not changed”.

For `O=C([O-])CCCc1ccccc1.[Na+]` [sodium phenylbutyrate], the “increase in Lamp2 gene expression, with A53T” value with Lamp2 (A53T expression plus phenylbutyrate) was determined as 400 fold. Further, the “increase in Lamp2 expression” value with Lamp2 (N27 dopamine neurons, drug alone) is reported as “about 30 fold”. Further, the “increase in Lamp2 expression, pretreatment followed by H2O2” value with Lamp2 (pretreatment 48 hr, then H2O2) was 200 fold. The “striatal dopamine levels (HPLC)” value in the data set with dopamine neurons (1000 mg/L drinking water two weeks before MPTP) was “significantly increased striatal dopamine levels”. Further, in the data set on dopamine neurons (setting [12]), the “DJ-1 levels in striatum” value was “significantly increased” and the “tyrosine hydroxylase protein levels in striatum” value is given as “increased”. Moreover, the “numbers of TH positive dopamine neurons in the substantia nigra” value with dopamine neurons (1000 mg/L drinking water) was “significantly higher numbers of TH positive dopamine neurons”. For the same compound, in [6], the “motor function (rotarod), Young Tg mice” value was “did not change motor function”. The “motor function (rotarod), Old Tg mice” value in data set [6] (vs vehicle) is “significantly improved motor function”. Also, in the data set on N27 cells [7], the “cell viability after A53T mutant α-synuclein expression” value is reported as “increased cell viability” and the “number of cells with α-synuclein aggregates” value is “reduced the number of cells with α-synuclein aggregates”. In the data set with Nrf2, the “increase in Nrf2 mRNA” value is 50 fold. Also, the “cell viability in naïve N27 cells” value with N27 cells [8] (H2O2 75 or 100 μM, 6-OHDA 60 or 80 μM) was “significantly improved cell viability”. In addition, the cell survival entry in the data set with N27 cells [8] (cells exposed to H2O2 and A53T, not shown) is “substantially better”. In the data set on Vamp2, the “Vamp2 overexpression, A53T with addition of phenylbutyrate” value stood at 200 fold. In the data set on human DJ-1 promoter, the luciferase activity entry is given as “increased luciferase activity”. For the same compound, in data set [9], the “water maze performance, Young Tg mice” value is given as “did not change water maze performance”. In data set [9] (vs vehicle), the “water maze function, Old Tg mice” value is listed as “prevented the age-related decline in water maze function”. The “neuroprotective effect against H2O2 and 6-OHDA-induced toxicity after DJ-1 knockdown” value in the data set with N27 cells [10] was “effectively abolished the neuroprotective effect”. Besides, the half-life in vivo in data set [11] was 50 min.

These data come from patent US10130604B2, “Composition and method for treating neurodegenerative disease” (priority 2012, dated 2018).
